Results on 38 compounds are retold here after US9512144B2, “Imidazothiazole sufonamides as nematicides” (BAYER CROPSCIENCE AKTIENGESELLSCHAFT, priority 2013, dated 2016).

Assay [1] deals with Meloidogyne incognita. The experiment in a line: Meloidogyne incognita test (MELGIN): sand, salad seeds, gall formation after 14 days. The settings on record: application rate 20 ppm, salad seedlings in sand. The format is in vivo. As for the experimental part: Solvent: 125.0 parts by weight of acetone To produce a suitable preparation of active compound, 1 part by weight of active compound is mixed with the stated amount of solvent, and the concentrate is diluted with water to the desired concentration. Vessels are filled with sand, a solution of the active ingredient, a suspension containing eggs and larvae of the southern root-knot nematode (Meloidogyne incognita) and salad seeds. The salad seeds germinate and the seedlings grow. Galls develop in the roots. After 14 days the nematicidal activity is determined on the basis of the percentage of gall formation. 100% means that no galls were found; 0% means that the number of galls found on the roots of the treated plants was equal to that in untreated control plants.

For assay [2], the system named is Meloidogyne incognita. In words: Meloidogyne incognita test: compound solution poured into pots with soil (loamy sand), salad seeds, gall formation after 21 days. Particulars: salad in soil. The format is in vivo. As for the experimental part: Solvent: 7 parts by weight of dimethylformamide Emulsifier: 2.5 parts by weight of alkylarylpolyglycolether To produce a suitable preparation of active compound, 1 part by weight of active compound is mixed with the stated amount of solvent and emulsifier and is diluted with water to the desired concentration. In the calculation of the concentration the soil volume has to be included. […] Further test concentrations are prepared by dilution with water. The compound solution is poured into pots filled with soil (loamy sand). A suspension containing eggs and larvae of the southern root-knot nematode (Meloidogyne incognita) is added, salad seeds are spread on the soil surface and covered with quartz sand. The salad seeds germinate and the seedlings grow. Galls develop on the roots. After 21 days the nematicidal activity is determined on the basis of the percentage of gall formation. 100% means no galls were found; 0% means the number of galls found on the roots of the treated plants was equal to that in untreated control plants.

For `COc1ccc(Cl)c(S(=O)(=O)NC(=O)c2cn3cc(C(F)(F)C(F)(F)F)sc3n2)c1` [Example I-1-147], the results for the “nematicidal activity on the basis of the percentage of gall formation (100% = no galls)” value in assay [1] and in assay [2] (application rate 8 ppm) were 100% and 85%, respectively. For `O=C(NS(=O)(=O)c1ccccc1Br)c1cn2cc(C(F)(F)C(F)(F)F)sc2n1` [Example I-1-227] the same measures were 100% and 100%. Take `O=C(NS(=O)(=O)c1cc(C(F)(F)F)ccc1Br)c1cn2cc(C(F)(F)C(F)(F)F)sc2n1` [Example I-1-223]: the figures for the “nematicidal activity on the basis of the percentage of gall formation (100% = no galls)” value in assay [1] and in assay [2] (application rate 4 ppm) were 100% and 80%, respectively.

In the case of `COc1ccc(Cl)c(S(=O)(=O)NC(=O)c2cn3cc(C(F)(F)F)sc3n2)c1` [Example I-1-1, N-[(2-chloro-5-methoxyphenyl)sulfonyl]-2-(trifluoromethyl)imidazo[2,1-b][1,3]thiazole-6-carboxamide], the “nematicidal activity on the basis of the percentage of gall formation (100% = no galls)” value in assay [1] is listed as 100%; in assay [2] (application rate 2 ppm), 95%. Regarding `O=C(NS(=O)(=O)c1cc(Cl)ccc1Br)c1cn2cc(C(F)(F)F)sc2n1` [Example I-1-205], the entries for the “nematicidal activity on the basis of the percentage of gall formation (100% = no galls)” value in assay [1] and in assay [2] (application rate 4 ppm) were 100% and 95%, respectively.

As for `COc1ccc(F)c(S(=O)(=O)NC(=O)c2cn3cc(C(F)(F)F)sc3n2)c1` [Example I-1-27], the “nematicidal activity on the basis of the percentage of gall formation (100% = no galls)” value came out at 100% in assay [1] and 80% in assay [2] (application rate 2 ppm). Regarding `Cc1ccc(C)c(S(=O)(=O)NC(=O)c2cn3cc(C(F)(F)C(F)(F)F)sc3n2)c1` [Example I-1-225], the “nematicidal activity on the basis of the percentage of gall formation (100% = no galls)” value in assay [1] is recorded as 90%; in assay [2] (application rate 8 ppm), 80%.

On to `Cc1c(C(F)(F)C(F)(F)F)sc2nc(C(=O)NS(=O)(=O)c3c(F)cccc3F)cn12` [Example I-1-252], for which the “nematicidal activity on the basis of the percentage of gall formation (100% = no galls)” value in assay [1] turned out to be 90%; in assay [2] (application rate 8 ppm), 95%. For `O=C(NS(=O)(=O)c1cc(Br)ccc1Cl)c1cn2cc(C(F)(F)F)sc2n1` [Example I-1-209], the “nematicidal activity on the basis of the percentage of gall formation (100% = no galls)” value in assay [1] was 100%; in assay [2] (application rate 4 ppm), 90%. `Cc1c(C(F)(F)C(F)(F)F)sc2nc(C(=O)NS(=O)(=O)c3ccccc3Cl)cn12` [Example I-1-255]: the “nematicidal activity on the basis of the percentage of gall formation (100% = no galls)” value in assay [1] and in assay [2] (application rate 8 ppm) was 100% each time. Take `O=C(NS(=O)(=O)c1cc(C(F)(F)F)ccc1Br)c1cn2cc(C(F)(F)F)sc2n1` [Example I-1-5]: the “nematicidal activity on the basis of the percentage of gall formation (100% = no galls)” value is recorded as 100% in assay [1] and 90% in assay [2] (application rate 4 ppm). With `O=C(NS(=O)(=O)c1c(Cl)cccc1Cl)c1cn2cc(C(F)(F)F)sc2n1` [Example I-1-10], the “nematicidal activity on the basis of the percentage of gall formation (100% = no galls)” value turned out to be 100% in assay [1] and 98% in assay [2] (application rate 8 ppm). For `Cc1ccc(Cl)cc1S(=O)(=O)NC(=O)c1cn2cc(C(F)(F)F)sc2n1` [Example I-1-8], the “nematicidal activity on the basis of the percentage of gall formation (100% = no galls)” value in assay [1] was determined as 100%; in assay [2] (application rate 4 ppm), 95%. For `Cc1ccc(C)c(S(=O)(=O)NC(=O)c2cn3c(C)c(C(F)(F)F)sc3n2)c1` [Example I-1-291], the “nematicidal activity on the basis of the percentage of gall formation (100% = no galls)” value in assay [1] came to 100%; in assay [2] (application rate 4 ppm), 85%. As to `O=C(NS(=O)(=O)c1ccccc1Cl)c1cn2cc(C(F)(F)F)sc2n1` [Example I-1-3], the “nematicidal activity on the basis of the percentage of gall formation (100% = no galls)” value in assay [1] is 100%; in assay [2] (application rate 2 ppm) it was 95%. `CCCOc1ccc(Cl)c(S(=O)(=O)NC(=O)c2cn3cc(C(F)(F)F)sc3n2)c1` [Example I-1-207]: the results for the “nematicidal activity on the basis of the percentage of gall formation (100% = no galls)” value in assay [1] and in assay [2] (application rate 4 ppm) were 100% and 95%, respectively.

For the compound `COc1ccc(Br)c(S(=O)(=O)NC(=O)c2cn3cc(C(F)(F)F)sc3n2)c1` [Example I-1-206], the “nematicidal activity on the basis of the percentage of gall formation (100% = no galls)” value in assay [1] and in assay [2] (application rate 4 ppm) was 100% throughout. As for `CC(C)Oc1ccc(Cl)c(S(=O)(=O)NC(=O)c2cn3cc(C(F)(F)F)sc3n2)c1` [Example I-1-208], the “nematicidal activity on the basis of the percentage of gall formation (100% = no galls)” value in assay [1] came to 100%; in assay [2] (application rate 1 ppm) it was 90%.

`O=C(NS(=O)(=O)c1c(F)cccc1F)c1cn2cc(C(F)(F)C(F)(F)F)sc2n1` [Example I-1-222]: the “nematicidal activity on the basis of the percentage of gall formation (100% = no galls)” value in assay [1] is reported as 100%; in assay [2] (application rate 8 ppm), 90%. Regarding `Cc1c(C(F)(F)F)sc2nc(C(=O)NS(=O)(=O)c3cc(C(F)(F)F)ccc3Cl)cn12` [Example I-1-289], the “nematicidal activity on the basis of the percentage of gall formation (100% = no galls)” value in assay [1] turned out to be 100%; in assay [2] (application rate 4 ppm), 85%.

`O=C(NS(=O)(=O)c1c(Cl)cccc1Cl)c1cn2cc(C(F)(F)C(F)(F)F)sc2n1` [Example I-1-146]: the results for the “nematicidal activity on the basis of the percentage of gall formation (100% = no galls)” value in assay [1] and in assay [2] (application rate 8 ppm) were 100% and 90%, respectively.

As for `CCOc1ccc(Cl)c(S(=O)(=O)NC(=O)c2cn3cc(C(F)(F)F)sc3n2)c1` [Example I-1-286], the “nematicidal activity on the basis of the percentage of gall formation (100% = no galls)” value is listed as 100% in assay [1] and 85% in assay [2] (application rate 1 ppm).

`Cc1ccc(C)c(S(=O)(=O)NC(=O)c2cn3cc(C(F)(F)F)sc3n2)c1` [Example I-1-9]: the “nematicidal activity on the basis of the percentage of gall formation (100% = no galls)” value in assay [1] and in assay [2] (application rate 8 ppm) was 100% throughout. On to `COc1ccc(Cl)c(S(=O)(=O)NC(=O)c2cn3c(C(F)(F)F)csc3n2)c1` [Example I-1-29], for which the “nematicidal activity on the basis of the percentage of gall formation (100% = no galls)” value in assay [1] amounted to 90%. Still for that read-out and setting: to `O=C(NS(=O)(=O)c1ccccc1Cl)c1cn2cc(Cl)sc2n1` [Example I-1-17] belongs 100%; to `Cc1c(Cl)ccc(S(=O)(=O)NC(=O)c2cn3cc(C(F)(F)F)sc3n2)c1C` [Example I-1-307], 100%. With `Cc1c(C(F)(F)C(F)(F)F)sc2nc(C(=O)NS(=O)(=O)c3cccc(Cl)c3)cn12` [Example I-1-250], the “nematicidal activity on the basis of the percentage of gall formation (100% = no galls)” value in assay [1] is reported as 90%. In the case of `O=C(NS(=O)(=O)c1ccccc1Cl)c1cn2cc(C(F)(F)C(F)(F)F)sc2n1` [Example I-1-142], the “nematicidal activity on the basis of the percentage of gall formation (100% = no galls)” value in assay [1] was 100%; in assay [2] (application rate 4 ppm) it was 80%.

In the case of `Cc1ccc(OC(F)F)c(S(=O)(=O)NC(=O)c2cn3cc(C(F)(F)F)sc3n2)c1` [Example I-1-314], the “nematicidal activity on the basis of the percentage of gall formation (100% = no galls)” value in assay [1] worked out at 90%. As to `O=C(NS(=O)(=O)c1ccccc1F)c1cn2cc(C(F)(F)C(F)(F)F)sc2n1` [Example I-1-226], the “nematicidal activity on the basis of the percentage of gall formation (100% = no galls)” value in assay [1] stood at 100%; in assay [2] (application rate 8 ppm), 80%. Consider `CSc1ccc(Cl)c(S(=O)(=O)NC(=O)c2cn3cc(C(F)(F)F)sc3n2)c1` [Example I-1-308], for which, in assay [1], the “nematicidal activity on the basis of the percentage of gall formation (100% = no galls)” value is listed as 100%. In the case of `O=C(NS(=O)(=O)c1cccc(Cl)c1)c1cn2cc(C(F)(F)F)sc2n1` [Example I-1-272], in assay [1], the “nematicidal activity on the basis of the percentage of gall formation (100% = no galls)” value stood at 90%. With `O=C(NS(=O)(=O)c1ccc(Cl)cc1Cl)c1cn2cc(C(F)(F)F)sc2n1` [Example I-1-279], the “nematicidal activity on the basis of the percentage of gall formation (100% = no galls)” value in assay [1] turned out to be 90%. On to `COc1ccc(Cl)c(S(=O)(=O)NC(=O)c2nc3sc(C(F)(F)F)cn3c2I)c1` [Example I-3-6], for which, in assay [1], the “nematicidal activity on the basis of the percentage of gall formation (100% = no galls)” value stood at 100%. On the same count and under the same terms, to `O=C(NS(=O)(=O)c1cc(Cn2cccn2)ccc1Cl)c1cn2cc(C(F)(F)C(F)(F)F)sc2n1` [Example I-1-292] belongs 100%; to `Cc1ccc(C)c(S(=O)(=O)NC(=O)c2cn3cc(Cl)sc3n2)c1` [Example I-1-22], 100%. Consider `O=C(NS(=O)(=O)c1c(F)cccc1F)c1cn2cc(Cl)sc2n1` [Example I-1-20], for which the “nematicidal activity on the basis of the percentage of gall formation (100% = no galls)” value in assay [1] came out at 100%. Take `COc1ccccc1S(=O)(=O)NC(=O)c1cn2cc(C(F)(F)C(F)(F)F)sc2n1` [Example I-1-248]: in assay [1], the “nematicidal activity on the basis of the percentage of gall formation (100% = no galls)” value is listed as 100%.
